One assay concerns Cutibacterium acnes. The assay can be described thus: Minimum inhibitory concentration against Propionibacterium acnes was determined. In kind it is functional.
Another assay deals with Staphylococcus aureus. The assay can be described thus: Minimum inhibitory concentration against Staphylococcus aureus was determined. In kind it is functional.

Structures are written as SMILES. Values after ≈ are worked out from the molar mass of the structure shown.

The record followed here is ChEMBL document CHEMBL1126964, “Antibacterial activity of long-chain alcohols: the role of hydrophobic alkyl groups” (1993).

A word on the MIC: it is the smallest concentration in the dilution series that meets the test's criterion for growth inhibition. Lower therefore signals greater potency. Turning to `CCCCCCCCCCCCO` [DODECANOL], the MIC in the assay on Cutibacterium acnes amounted to 3.13 µg/mL (≈ 16.8 µM); against Staphylococcus aureus, 6.25 µg/mL (≈ 33.5 µM).

For the compound `CC(C)=CCC/C(C)=C/CC/C(C)=C/CCC(C)O` (stereo not given), the MIC in the assay with Cutibacterium acnes was 1.56 µg/mL (≈ 5.9 µM); against Staphylococcus aureus it was above 800 µg/mL.

For `CCCCCCCCCCCCCCCCCO`, the MIC against Cutibacterium acnes and with Staphylococcus aureus was above 800 µg/mL each time.

With `C=CC(C)(O)CCC=C(C)C` (stereo not given) [LINALOOL], the minimum inhibitory concentration (MIC) in the assay with Cutibacterium acnes and against Staphylococcus aureus was above 800 µg/mL throughout.

Consider `CC(C)=CCC/C(C)=C/CC/C(C)=C/CO` [FARNESOL], for which the MIC with Cutibacterium acnes and against Staphylococcus aureus was 6.25 µg/mL (≈ 28.1 µM) throughout.

As for `CCCCCCCCCCCO` [UNDECANOL], the figures for the MIC with Cutibacterium acnes and with Staphylococcus aureus were 12.5 µg/mL (≈ 72.5 µM) and 25 µg/mL (≈ 145 µM), respectively.

Regarding `CCCCCCCCCCCCCCCO`, the values for the MIC against Cutibacterium acnes and against Staphylococcus aureus were 0.78 µg/mL (≈ 3.41 µM) and above 800 µg/mL, respectively.

On to `CC(C)=CCC/C(C)=C/CCC(C)O` (stereo not given), for which the MIC with Cutibacterium acnes was found to be 25 µg/mL (≈ 127 µM); in the assay with Staphylococcus aureus it was 50 µg/mL (≈ 255 µM).

Take `CCCCCCCCO` [OCTANOL]: the MIC worked out at 200 µg/mL (≈ 1540 µM) in the assay on Cutibacterium acnes and 800 µg/mL (≈ 6140 µM) against Staphylococcus aureus.

For `CCCCCCO` [1-HEXANOL], the MIC against Cutibacterium acnes and against Staphylococcus aureus was above 800 µg/mL throughout.

For the compound `CCCCCCCCCCCCCCCCCCCCO` [1-EICOSANOL], the MIC with Cutibacterium acnes and against Staphylococcus aureus was above 800 µg/mL throughout.

Regarding `CCCCCCCCCCCCCCCCCCO` [CETOSTEARYL ALCOHOL], the MIC against Cutibacterium acnes and in the assay on Staphylococcus aureus was above 800 µg/mL each time.

With `C=CC(C)(O)CC/C=C(\C)CCC=C(C)C` (stereo not given) [NEROLIDOL], the results for the MIC in the assay with Cutibacterium acnes and in the assay with Staphylococcus aureus were 25 µg/mL (≈ 112 µM) and 50 µg/mL (≈ 225 µM), respectively.

Turning to `CCCCCCCCCCCCCCO` [MYRISTYL ALCOHOL], the results for the minimum inhibitory concentration (MIC) with Cutibacterium acnes and with Staphylococcus aureus were 1.56 µg/mL (≈ 7.28 µM) and above 800 µg/mL, respectively.

With `CCCCCCCO` [1-HEPTANOL], the MIC against Cutibacterium acnes is 400 µg/mL (≈ 3440 µM); against Staphylococcus aureus, above 800 µg/mL.

Regarding `CCCCCCCCCCO` [DECANOL], the MIC against Cutibacterium acnes turned out to be 25 µg/mL (≈ 158 µM); in the assay with Staphylococcus aureus, 50 µg/mL (≈ 316 µM).

For `CCCCCCCCCCCCCO` [TRIDECAN-1-OL], the MIC against Cutibacterium acnes is 1.56 µg/mL (≈ 7.79 µM); with Staphylococcus aureus, above 800 µg/mL.

For `CCCCCCCCCO` [NONANOL], the MIC came out at 100 µg/mL (≈ 693 µM) against Cutibacterium acnes and 200 µg/mL (≈ 1390 µM) in the assay with Staphylococcus aureus.

For the compound `CCCCCCCCCCCCCCCCO` [CETYL ALCOHOL], the MIC with Cutibacterium acnes was 0.78 µg/mL (≈ 3.22 µM); in the assay on Staphylococcus aureus it was above 800 µg/mL.

`CC(C)=CCC/C(C)=C/CO` [GERANIOL]: the MIC in the assay with Cutibacterium acnes was 400 µg/mL (≈ 2590 µM); in the assay on Staphylococcus aureus it was 800 µg/mL (≈ 5190 µM).
